The test system of test [1] is C2C12 muscle cells. Nature of the test: Fatty acid oxidation (oxygen consumption rate, Seahorse XF-24) in C2C12 muscle cells. The conditions noted are these: same system. The class given is cell-based. As for the experimental part:
Cell Culture: C2C12 muscle cells were seeded with 40,000 cells per well on Seahorse tissue culture plates in Dulbecco's modified eagle's medium (DMEM) containing 10% fetal bovine serum (FBS) and antibiotics (1% penicillin-streptomycin) at 37° C. in 5% CO2. After reaching confluency (24 hours), cells were induced to differentiate with DMEM containing 2% Horse Serum for 3 to 4 days until myotubes were fully formed. Cells were then treated with indicated concentration of Compound 2 for 24 hours.
(§1) Compound 2 was dissolved in 100% DMSO to a stock concentration of 100 mM. This stock was further diluted to indicated concentrations in DMEM media.
Fatty acid oxidation: Baseline and palmitate-stimulated oxygen consumption rates were measured with XF-24 analyzer (Seahorse Bioscience (now part of Agilent Technologies), MA, USA). After 24 hour treatment with Compound 2 of differentiated C2C12 muscle cells, cells were washed twice with non-buffered carbonate-free pH 7.4 low glucose (2.5 mM) DMEM containing carnitine (0.5 mM), equilibrated with 600 μl of the same media in a non-CO2 incubator for 45 minutes, and then inserted into the instrument for 15 minutes of further equilibration, followed by O2 consumption measurement. Three successive baseline measures at five-minute intervals were taken prior to injection of palmitate (200 μM final concentration). Sets of three five-minute intervals followed by 10-minute time delay were continued over a 2 to 3 hour period after palmitate injection. The area under the curve of 02 consumption change from baseline for each sample was then calculated and used for subsequent analysis. Data are represented as mean±SD for each treatment group.

Test [2] relates to HepG2 liver cells. Nature of the test: Lipid accumulation (Oil Red Staining) in HepG2 liver cells induced with high glucose plus insulin. Type of test: cell-based. The conditions noted are these: same system. The protocol:
Cell Culture: HepG2 liver cells were seeded with 80,000 cells per well on 24-well tissue culture plates in low glucose (5 mM) DMEM containing 10% FBS and antibiotics. After 24 hours of attachment, lipid accumulation was induced by incubating cells with high glucose (25 mM) DMEM (10% FBS, 1% Pen-Strep) plus 100 nM insulin for 48 hours. Cells were then treated with indicated concentrations of Compound 2 for an additional 48 hours.
as §1
Lipid accumulation (Oil Red Staining): HepG2 liver cells were seeded and treated as described above. After 48 hours of treatment with Compound 2, lipid accumulation in HepG2 was measured via Oil Red Staining. Cells were washed with phosphate buffered saline (PBS) once, then cells were fixated with 10% formalin for 1 hour. After removal of the formalin, cells were washed with ddH2O twice, then washed with 60% isopropanol. Cells were dried completely. Cells were stained with Oil Red working solution (˜5 mM) for 25 minutes, then immediately washed with ddH2O four times, then dried completely again. Oil Red dye was eluted with 100% isopropanol and absorbance was read at 500 nm. Unstained cells plus isopropanol was used as a blank and subtracted from all readings. Data are represented as mean±SEM for each treatment group.

The test system of test [3] is C2C12 muscle cells. To be noted: same system, metformin alone; cited from earlier work.
The subject of test [4] is HepG2 liver cells. To be noted: same system, metformin alone; cited from earlier work.

SMILES strings stand for the structures. Bounds are passed on as bounds.

The values that follow come from patent US10344002B2, “Compositions and methods for treating metabolic disorders” (NuSirt Sciences, Inc., priority 2016, dated 2019).

Turning to `CN(C)C(=N)NC(=N)N` [metformin, Metformin, reference compound], the “fold higher concentration (in comparison with Compound 2) for fat oxidation” value in the test with C2C12 muscle cells [1] is reported as 100,000 fold. The “fold higher concentration (in comparison with Compound 2) for reducing hepatic lipids” value with HepG2 liver cells [2] is reported as 100,000 fold. The “concentration below which fat oxidation is not stimulated” value in the test on C2C12 muscle cells [3] is reported as no less than 1 mM. For the same compound, in the test with HepG2 liver cells [4], the “concentration below which hepatic lipids are not reduced” value is on record as no less than 1 mM.
